Measurements: patent US10266537B2, “3-acetylenyl-pyrazole-pyrimidine derivative, and preparation method therefor and uses thereof” (Si Chuan University, priority 2015, dated 2019)
Read-outs that look alike come from different tables or passages of the source.

Columns and labels:
HCT116 = experiment: Cell proliferation inhibition assay (MTT); assay type: cell-based; settings: Homo sapiens, HCT-116, 72 h, read-out: Proliferation inhibitory activity IC50
Procedure: (§1) The cells were seeded in 96-well plates with 200 μL of cell suspension per well and incubated overnight in a cell culture medium with a cell concentration of 1 2×10^4 cells/mL. The next day, the supernatant was discarded (the suspension cell was centrifuged before it) and the cells were treated with gradient concentrations of the test compound, respectively. […] After 72 hours, add 20 μL of MTT reagent at a concentration of 5 mg/mL per well. After incubation for 2-4 h, the supernatant was discarded and 150 μL of DMSO was added to each well. […] Relative cell proliferation inhibition rate=([MUT]-[MUT])×100%/[MUT]. The experiment was repeated at least 3 times. Experimental data were expressed as mean, data statistics using t test, P<0.05 for the difference was statistically significant.

MDA-MB-231 = experiment: Cell proliferation inhibition assay (MTT); assay type: cell-based, human
Procedure: (§2) The remaining cell lines were cultured in DMEM complete medium containing 10% fetal bovine serum (MV4-11 cells 20%), 100 U/ml penicillin, 100 μg/mL streptomycin at 5% CO2, and 37° C.
(§3) The cells were seeded in 96-well plates with 200 μL of cell suspension per well and incubated overnight in a cell culture medium with a cell concentration of 1˜2×10^4 cells/mL. The next day, the supernatant was discarded (the suspension cell was centrifuged before it) and the cells were treated with gradient concentrations of the test compound, respectively. At the same time, the drug-free negative control group and the equal volume of solvent control group, DMSO concentration of 0.1%, each dose group set up three wells, 37° C., 5% CO2 conditions. After 72 hours, add 20 μL of MTT reagent at a concentration of 5 mg/mL per well. After incubation for 2-4 h, the supernatant was discarded and 150 μL of DMSO was added to each well. […] Determine the absorbance (A) value (λ=570 nm, A value is proportional to the number of living cells), whichever is the average. […] The experiment was repeated at least 3 times. Experimental data were expressed as mean, data statistics using t test, P<0.05 for the difference was statistically significant. The inhibitory effects of the following compounds on cell proliferation were expressed as IC50 or inhibition rates.

Itk(h) = Itk(h) (Homo sapiens (Human), UniProt Q08881); experiment: Kinase inhibition assay (KinaseProfiler, 33P-ATP); assay type: biochemical; settings: compound at 10 μM, read-out: The percentage of the remaining active protein
PAK1(h) = PAK1(h) (Homo sapiens (Human), UniProt Q13153); experiment: Kinase inhibition assay (KinaseProfiler, 33P-ATP); assay type: biochemical; settings: compound at 10 μM, read-out: The percentage of the remaining active protein
Sequence of PAK1(h) (Q13153 whole entry): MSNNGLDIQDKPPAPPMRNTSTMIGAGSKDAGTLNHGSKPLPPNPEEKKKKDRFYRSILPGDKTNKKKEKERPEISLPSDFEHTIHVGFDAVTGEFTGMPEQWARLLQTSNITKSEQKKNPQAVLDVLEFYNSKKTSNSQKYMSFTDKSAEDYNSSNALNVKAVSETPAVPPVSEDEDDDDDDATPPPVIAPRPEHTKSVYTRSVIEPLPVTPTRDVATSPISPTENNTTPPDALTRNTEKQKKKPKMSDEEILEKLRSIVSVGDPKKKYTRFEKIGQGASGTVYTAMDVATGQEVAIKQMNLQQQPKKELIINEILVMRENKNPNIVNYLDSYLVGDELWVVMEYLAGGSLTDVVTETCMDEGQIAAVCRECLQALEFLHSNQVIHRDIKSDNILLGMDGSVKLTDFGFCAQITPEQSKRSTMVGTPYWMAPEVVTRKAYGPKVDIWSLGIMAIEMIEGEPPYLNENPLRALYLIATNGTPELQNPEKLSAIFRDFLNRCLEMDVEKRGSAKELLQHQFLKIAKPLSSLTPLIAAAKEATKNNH

c-Src(1-530) = c-Src(1-530) (Homo sapiens (Human), UniProt P12931); experiment: Kinase inhibition assay (KinaseProfiler, 33P-ATP); settings: c-Src(1-530); ATP at Km
CDK7 = CDK7 (Homo sapiens (Human), UniProt P50613); experiment: Kinase inhibition assay (KinaseProfiler, 33P-ATP); assay type: biochemical; settings: CDK7; compound at 10 μM; read-out: The percentage of the remaining active protein
MDA-MB-435 = experiment: Cell proliferation inhibition assay (MTT); assay type: cell-based, human
Procedure: as §2, §3

A375 = experiment: Cell proliferation inhibition assay (MTT); assay type: cell-based; settings: Homo sapiens, A-375, 72 h, read-out: Proliferation inhibitory activity IC50
Procedure: as §1

JNK1α1(h) = JNK1α1(h) (Homo sapiens (Human), UniProt P45983); experiment: Kinase inhibition assay (KinaseProfiler, 33P-ATP); assay type: biochemical; settings: compound at 10 μM, read-out: The percentage of the remaining active protein
Sequence of JNK1α1(h) (P45983 other isoform, or with tags, fused parts or gaps): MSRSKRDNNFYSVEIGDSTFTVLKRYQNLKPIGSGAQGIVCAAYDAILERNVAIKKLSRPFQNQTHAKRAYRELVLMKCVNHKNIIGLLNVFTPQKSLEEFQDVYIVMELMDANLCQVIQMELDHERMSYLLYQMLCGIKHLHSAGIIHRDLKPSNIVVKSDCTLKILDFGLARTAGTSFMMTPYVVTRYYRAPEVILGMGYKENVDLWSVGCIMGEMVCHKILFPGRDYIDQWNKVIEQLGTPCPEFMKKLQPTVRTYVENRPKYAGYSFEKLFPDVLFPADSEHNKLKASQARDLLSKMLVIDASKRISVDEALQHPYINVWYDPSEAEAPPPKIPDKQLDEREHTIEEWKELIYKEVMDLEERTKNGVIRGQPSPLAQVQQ

EphA2 = EphA2 (Homo sapiens (Human), UniProt P29317); experiment: Kinase inhibition assay (KinaseProfiler, 33P-ATP); settings: EphA2; ATP at Km
ARK5(h) = ARK5(h) (Homo sapiens (Human), UniProt O60285); experiment: Kinase inhibition assay (KinaseProfiler, 33P-ATP); assay type: biochemical; settings: compound at 10 μM, read-out: The percentage of the remaining active protein
Sequence of ARK5(h) (O60285 whole entry): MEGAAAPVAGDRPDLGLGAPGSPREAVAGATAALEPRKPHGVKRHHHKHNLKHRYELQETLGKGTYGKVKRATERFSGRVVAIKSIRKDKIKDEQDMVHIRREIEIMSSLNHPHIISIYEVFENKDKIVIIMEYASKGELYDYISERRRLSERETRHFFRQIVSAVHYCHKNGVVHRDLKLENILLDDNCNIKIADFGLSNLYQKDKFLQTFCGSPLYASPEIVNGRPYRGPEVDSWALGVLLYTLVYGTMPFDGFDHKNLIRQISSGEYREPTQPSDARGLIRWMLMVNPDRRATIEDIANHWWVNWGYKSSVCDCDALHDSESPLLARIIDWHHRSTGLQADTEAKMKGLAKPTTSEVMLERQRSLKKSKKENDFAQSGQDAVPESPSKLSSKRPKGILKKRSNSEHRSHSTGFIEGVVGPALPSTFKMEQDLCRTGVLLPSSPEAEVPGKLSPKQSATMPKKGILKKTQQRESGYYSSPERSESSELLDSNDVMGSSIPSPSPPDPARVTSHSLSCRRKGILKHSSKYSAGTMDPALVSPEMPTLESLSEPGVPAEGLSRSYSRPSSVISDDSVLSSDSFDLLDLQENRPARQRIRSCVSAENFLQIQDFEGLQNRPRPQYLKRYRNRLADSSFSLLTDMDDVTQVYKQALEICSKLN

B-Raf = B-Raf (Homo sapiens (Human), UniProt P15056); experiment: Kinase inhibition assay (KinaseProfiler, 33P-ATP)
Sequence of B-Raf (P15056 whole entry): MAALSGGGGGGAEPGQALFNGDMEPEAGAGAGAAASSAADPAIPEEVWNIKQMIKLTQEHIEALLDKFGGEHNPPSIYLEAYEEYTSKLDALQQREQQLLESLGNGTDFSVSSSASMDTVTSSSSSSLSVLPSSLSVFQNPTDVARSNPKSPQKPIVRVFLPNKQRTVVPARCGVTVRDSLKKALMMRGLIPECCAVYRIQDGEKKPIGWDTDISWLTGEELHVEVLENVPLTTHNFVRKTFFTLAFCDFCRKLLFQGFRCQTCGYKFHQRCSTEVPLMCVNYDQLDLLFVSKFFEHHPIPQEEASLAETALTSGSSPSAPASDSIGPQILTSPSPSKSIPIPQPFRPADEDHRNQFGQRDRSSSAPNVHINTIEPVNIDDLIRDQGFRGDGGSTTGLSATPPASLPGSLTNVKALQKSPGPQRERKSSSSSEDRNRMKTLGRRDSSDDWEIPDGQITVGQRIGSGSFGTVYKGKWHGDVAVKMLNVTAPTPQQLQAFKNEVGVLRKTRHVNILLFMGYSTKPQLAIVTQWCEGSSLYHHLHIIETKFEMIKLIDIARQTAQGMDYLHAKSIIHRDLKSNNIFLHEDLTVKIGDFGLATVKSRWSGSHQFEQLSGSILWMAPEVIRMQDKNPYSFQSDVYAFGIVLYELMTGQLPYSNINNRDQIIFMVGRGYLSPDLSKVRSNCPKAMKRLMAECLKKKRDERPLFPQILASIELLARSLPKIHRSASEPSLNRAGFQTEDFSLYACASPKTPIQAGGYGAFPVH

EphB4 = EphB4 (Homo sapiens (Human), UniProt P54760); experiment: Kinase inhibition assay (KinaseProfiler, 33P-ATP); assay type: biochemical; settings: EphB4; ATP at Km
Tie2 = Tie2 (Homo sapiens (Human), UniProt Q02763); experiment: Kinase inhibition assay (KinaseProfiler, 33P-ATP); assay type: biochemical; settings: Tie2 (h); compound at 10 μM; read-out: The percentage of the remaining active protein
Btk = Btk (Homo sapiens (Human), UniProt Q06187); experiment: Kinase inhibition assay (KinaseProfiler, 33P-ATP); assay type: biochemical
Sequence of Btk (Q06187 whole entry): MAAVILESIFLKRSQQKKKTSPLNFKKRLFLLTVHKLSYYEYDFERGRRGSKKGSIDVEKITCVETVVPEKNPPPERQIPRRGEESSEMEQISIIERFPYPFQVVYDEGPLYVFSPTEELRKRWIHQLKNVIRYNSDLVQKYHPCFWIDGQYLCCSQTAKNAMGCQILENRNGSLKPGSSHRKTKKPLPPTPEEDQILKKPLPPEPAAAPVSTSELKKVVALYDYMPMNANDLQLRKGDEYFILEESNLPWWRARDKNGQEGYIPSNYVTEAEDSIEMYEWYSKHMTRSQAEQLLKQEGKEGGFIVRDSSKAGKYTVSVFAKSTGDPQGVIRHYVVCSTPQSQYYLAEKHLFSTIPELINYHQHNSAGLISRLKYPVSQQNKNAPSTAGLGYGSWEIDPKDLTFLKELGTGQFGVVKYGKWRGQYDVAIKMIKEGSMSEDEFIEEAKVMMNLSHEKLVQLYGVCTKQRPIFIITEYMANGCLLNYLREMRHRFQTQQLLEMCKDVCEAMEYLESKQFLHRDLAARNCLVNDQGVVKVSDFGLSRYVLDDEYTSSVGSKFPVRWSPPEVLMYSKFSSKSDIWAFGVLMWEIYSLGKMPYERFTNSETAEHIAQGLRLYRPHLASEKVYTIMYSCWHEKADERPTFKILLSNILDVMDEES

HT29 = experiment: Cell proliferation inhibition assay (MTT); assay type: cell-based; settings: Homo sapiens, HT-29, 72 h, read-out: Proliferation inhibitory activity IC50
Procedure: as §1

BT474 = experiment: Cell proliferation inhibition assay (MTT); assay type: cell-based; settings: Homo sapiens, BT-474, 72 h, read-out: Proliferation inhibitory activity IC50
Procedure: as §1

IKKα = IKKα (Homo sapiens (Human), UniProt O15111); experiment: Kinase inhibition assay (KinaseProfiler, 33P-ATP); assay type: biochemical
Sequence of IKKα (O15111 whole entry): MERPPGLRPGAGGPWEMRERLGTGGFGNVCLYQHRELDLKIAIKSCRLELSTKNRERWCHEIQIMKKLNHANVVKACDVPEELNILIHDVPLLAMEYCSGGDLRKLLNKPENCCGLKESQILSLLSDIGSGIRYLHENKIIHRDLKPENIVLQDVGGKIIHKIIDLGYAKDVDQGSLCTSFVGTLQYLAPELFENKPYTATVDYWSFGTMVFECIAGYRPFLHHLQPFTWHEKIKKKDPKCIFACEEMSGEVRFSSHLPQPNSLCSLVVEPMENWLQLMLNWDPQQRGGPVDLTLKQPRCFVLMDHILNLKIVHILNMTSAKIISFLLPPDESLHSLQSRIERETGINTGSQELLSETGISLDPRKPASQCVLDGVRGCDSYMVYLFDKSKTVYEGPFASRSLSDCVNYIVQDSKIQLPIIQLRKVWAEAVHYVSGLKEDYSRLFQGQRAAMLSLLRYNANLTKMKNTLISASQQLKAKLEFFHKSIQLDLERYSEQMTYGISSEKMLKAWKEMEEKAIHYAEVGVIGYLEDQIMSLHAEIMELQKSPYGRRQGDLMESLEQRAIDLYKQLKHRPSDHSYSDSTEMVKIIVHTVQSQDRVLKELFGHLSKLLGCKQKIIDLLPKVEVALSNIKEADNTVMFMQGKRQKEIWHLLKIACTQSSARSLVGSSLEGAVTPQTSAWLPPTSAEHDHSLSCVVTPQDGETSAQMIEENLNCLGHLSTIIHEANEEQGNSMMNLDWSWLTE

DDR1 = DDR1 (Homo sapiens (Human), UniProt Q08345); experiment: Kinase inhibition assay (KinaseProfiler, 33P-ATP); assay type: biochemical; settings: DDR1; ATP at Km
Blk = Blk (Homo sapiens (Human), UniProt P51451); experiment: Kinase inhibition assay (KinaseProfiler, 33P-ATP); assay type: biochemical; settings: Blk; ATP at Km
Sequence of Blk (P51451 whole entry): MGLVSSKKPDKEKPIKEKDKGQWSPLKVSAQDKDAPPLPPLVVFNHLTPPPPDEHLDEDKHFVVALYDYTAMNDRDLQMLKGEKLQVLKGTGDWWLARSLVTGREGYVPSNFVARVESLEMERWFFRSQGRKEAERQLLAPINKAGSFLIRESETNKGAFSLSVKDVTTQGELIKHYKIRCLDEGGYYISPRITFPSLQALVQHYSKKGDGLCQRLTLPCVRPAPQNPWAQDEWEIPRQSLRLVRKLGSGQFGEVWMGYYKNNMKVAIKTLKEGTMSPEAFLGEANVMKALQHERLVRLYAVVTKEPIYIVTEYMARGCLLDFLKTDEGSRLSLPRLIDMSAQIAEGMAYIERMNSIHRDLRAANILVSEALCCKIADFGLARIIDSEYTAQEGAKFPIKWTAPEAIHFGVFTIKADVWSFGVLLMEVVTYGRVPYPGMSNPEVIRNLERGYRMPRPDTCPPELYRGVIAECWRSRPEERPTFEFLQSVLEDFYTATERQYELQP

[1] = system: breast cancer cell line MDA-MB-231; assay type: in vivo; settings: mouse, in vivo
Procedure: When the tumors grew to volumes of 200 mm^3, all the mice were randomized into groups (6 mice for each group) and dosed with indicated compounds.
Observation indexes: mouse body weight and the tumor size were measured once every three days, the tumor volume is calculated (length×width^2×0.5).

Fms(h) = Fms(h) (Homo sapiens (Human), UniProt P07333); experiment: Kinase inhibition assay (KinaseProfiler, 33P-ATP); assay type: biochemical; settings: compound at 10 μM, read-out: The percentage of the remaining active protein
Lyn = Lyn (Homo sapiens (Human), UniProt P07948); experiment: Kinase inhibition assay (KinaseProfiler, 33P-ATP); assay type: biochemical; settings: Lyn(h); compound at 10 μM; read-out: The percentage of the remaining active protein
CHK1(h) = CHK1(h) (Homo sapiens (Human), UniProt O14757); experiment: Kinase inhibition assay (KinaseProfiler, 33P-ATP); assay type: biochemical; settings: compound at 10 μM, read-out: The percentage of the remaining active protein
MDA-MB-468 = experiment: Cell proliferation inhibition assay (MTT); assay type: cell-based; settings: Homo sapiens, MDA-MB-468, 72 h, read-out: Proliferation inhibitory activity IC50
Procedure: as §1

EphB2 = EphB2 (Homo sapiens (Human), UniProt P29323); experiment: Kinase inhibition assay (KinaseProfiler, 33P-ATP); assay type: biochemical; settings: EphB2(h); compound at 10 μM; read-out: The percentage of the remaining active protein
PKBα(h) = PKBα(h) (Homo sapiens (Human), UniProt P31749); experiment: Kinase inhibition assay (KinaseProfiler, 33P-ATP); assay type: biochemical; settings: compound at 10 μM, read-out: The percentage of the remaining active protein
Sequence of PKBα(h) (P31749 whole entry): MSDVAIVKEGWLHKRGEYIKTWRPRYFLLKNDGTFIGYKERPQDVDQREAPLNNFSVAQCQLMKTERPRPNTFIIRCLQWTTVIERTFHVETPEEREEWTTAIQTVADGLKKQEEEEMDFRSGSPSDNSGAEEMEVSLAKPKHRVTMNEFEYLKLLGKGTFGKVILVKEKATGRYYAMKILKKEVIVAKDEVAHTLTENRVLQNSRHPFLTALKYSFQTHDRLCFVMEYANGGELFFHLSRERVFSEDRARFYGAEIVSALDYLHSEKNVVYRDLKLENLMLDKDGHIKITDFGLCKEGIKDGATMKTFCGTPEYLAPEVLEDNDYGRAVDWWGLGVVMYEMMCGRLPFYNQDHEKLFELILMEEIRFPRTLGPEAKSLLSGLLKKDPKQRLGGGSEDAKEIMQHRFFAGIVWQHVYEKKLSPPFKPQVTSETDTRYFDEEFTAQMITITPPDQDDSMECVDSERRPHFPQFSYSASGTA

SMILES: CCn1nc(C#Cc2cc(C(=O)Nc3ccc(CN4CCN(C)CC4)c(C(F)(F)F)c3)ccc2C)c2c(N)ncnc21 [Compound 3]
- IC50 (HCT116): 178 nM
- IC50 (MDA-MB-231; Homo sapiens, MDA-MB-231, 72 h, read-out: Proliferation inhibitory activity IC50): 11.3 nM
- IC50 (MDA-MB-231; read-out: Proliferative inhibitory activity MDA-MB-231 (IC50 class)): < 100 nM
- remaining activity at 10 µM (Itk(h)): 5%
- remaining activity at 10 µM (PAK1(h)): 57%
- IC50 (c-Src(1-530)): < 1 nM
- remaining activity at 10 µM (CDK7): 70%
- IC50 (MDA-MB-435; Homo sapiens, MDA-MB-435, 72 h, read-out: Proliferation inhibitory activity IC50): 8.65 nM
- IC50 (MDA-MB-435; read-out: Proliferative inhibitory activity MDA-MB-435 (IC50 class)): < 100 nM
- IC50 (A375): 20.9 nM
- remaining activity at 10 µM (JNK1α1(h)): 66%
- IC50 (EphA2): 16 nM
- remaining activity at 10 µM (ARK5(h)): 105%
- IC50 (B-Raf; B-Raf, ATP at Km): 92 nM
- remaining activity at 10 µM (B-Raf; read-out: The percentage of the remaining active protein): 5%
- IC50 (EphB4): 23 nM
- remaining activity at 10 µM (Tie2): 3%
- remaining activity at 10 µM (Btk; BTK(h), compound at 10 μM, read-out: The percentage of the remaining active protein): -3%
- IC50 (Btk; Btk, ATP at Km): 67 nM
- IC50 (HT29): 166 nM
- IC50 (BT474): > 10000 nM
- remaining activity at 10 µM (IKKα; IKKα(h), compound at 10 μM, read-out: The percentage of the remaining active protein): 2%
- IC50 (IKKα; IKKα, ATP at Km): 353 nM
- IC50 (DDR1): 9 nM
- IC50 (Blk): 19 nM
- inhibitory effect compared to positive control [1]: better than the positive control (paclitaxel)
- tumor growth inhibition [1]: significantly inhibited
- remaining activity at 10 µM (Fms(h)): 0%
- remaining activity at 10 µM (Lyn): 0%
- remaining activity at 10 µM (CHK1(h)): 91%
- IC50 (MDA-MB-468): 4480 nM
- remaining activity at 10 µM (EphB2): 0%
- remaining activity at 10 µM (PKBα(h)): 73%
